Measured values as given in US20130195866A1, “METHODS TO INHIBIT NEURODEGENERATION” (priority 2010, published 2013).
Ends that are not written are not given here.

Key:
C57BL/6J mice = assay: Neuronal morphology in intact brain of C57BL/6J mice after intracranial AAV injection; format: in vivo, mouse; conditions: live multiphoton imaging, compared with control vector
Description: Intracortical injections and surgery were performed as described previously (Spires et al., 2005; Kuchibhotla et al., 2008; Meyer-Luehmann et al., 2008). Briefly, mice were anesthetized with ketamine (10 mg/kg) and xylazine (1 mg/kg) and placed in a stereotaxic apparatus. The surgical site was sterilized with betadyne and isopropyl alcohol, and a 2-3 mm incision was made in the scalp along the midline between the ears. Burr holes were drilled in the skull, 0.5 mm posterior from bregma, and 0.5 mm lateral to the midsagittal line. Using a Hamilton syringe, 3 μl of virus (titer, 4.2×10^12 viral genomes/ml) was injected 1.2 mm deep in somatosensory cortex at a rate of 0.25 μl/min. After one injection in each burr hole, the scalp was sutured, and the mouse recovered from anesthesia on a heating pad.
Images of GFP-filled neuronal processes and, in the case of APP/PS1 mice, amyloid pathology, and blood vessels were obtained using a Bio-Rad 1024ES multiphoton microscope (Bio-Rad), mounted on an Olympus Optical BX50WI upright microscope. […] A mode-locked titanium/sapphire laser (MaiTai; Spectra Physics) generated two-photon fluorescence with 800 nm excitation, and detectors containing three photomultiplier tubes (Hamamatsu) collected emitted light in the range of 380-480, 500-540, and 560-650 nm (Bacskai et al., 2003). […]

NFAT [1] = assay: NFAT luciferase reporter assay in cultured neurons; format: cell-based, mouse; conditions: neurons overexpressing CaNCA, with or without AAV-flag-AKAP79, 24 h
Description: Luciferase reporter assay. CaNwt, CaNCA, or NFAT-TA-Luc (Clontech) was subcloned into AAV serotype 2 vector. These plasmids (1 μg) were used […] at 3 DIV. After 24 h, the cells were harvested and luciferase activities were measured with a luminometer using a reagent kit (Luciferase Assay System with Reporter Lysis Buffer; Promega). The background luciferase activity was subtracted from all experiments.
(§1) To examine whether CaN activation is sufficient to cause these morphologic changes, even in the absence of overexpressed APP or exogenously applied Aβ, it was sought to investigate whether the expression of a constitutively-active CaN (CaNCA) can favor morphological changes in wild-type cultured neurons. An AAV vector encoding an HA-tagged CaNCA (AAV-CaNCA) or wild-type CaN (AAV-CaNwt) or an AAV vector control was expressed in cortical cultures. […] Neurons with swollen dendrites were barely detectable in CaNwt-overexpressing cultures, but they were prominently detected in CaNCA-overexpressing cultures (FIG. 10B). […] The latter is similar to the number of dystrophic neurites found in cultures expressing β-galactosidase, an AAV-vector control. Dendritic complexity (FIGS. 10D and 10E) and mean spine density (FIGS. 10F and 100) were reduced in neurons overexpressing CaNCA but not in CaNwt- or vector-overexpressing neurons.

[2] = tested on: wild-type cultured neurons; assay: CaNCA overexpression-induced abnormal morphology in wild-type cultured neurons; format: cell-based, mouse; conditions: for spine density: 15 DIV primary neurons transfected with wtCaN+GFP or CaNCA+GFP (DMSO or VIVIT in medium) or CaNCA+GFP+AKAP79; for GFP-positive neurons with local neuritic dystrophies: of total GFP-positive neurons
Description: FIGS. 10A to 10H show wild-type cultured neurons overexpressing a constitutively active CaN construct, CaNCA, develop abnormal morphology that is a phenocopy of the AD effect. […] Wild-type cultured neurons were infected with AAV-CaNwt or AAV-CaNCA with or without AAV-flag-AKAP79 for twenty-four hours, and then the cell extracts were assayed for luciferase activity. The symbol “*” indicates a p-value of less than 0.05; Data are mean±SD (n=3 experiments each). FIGS. 10B to 10G show images and quantification results of neurodegenerative morphologies observed in wild-type cultured neurons overexpressing CaNCA or a vector. Overexpression of CaNCA, but not CaNwt or vector control, into wild-type cultures induces dendritic dystrophies (FIGS. 10B and 10C; arrows in FIG. 10B indicated local swelling of dendrites), simplification of dendritic arborization (FIGS. 10D and 10E), and spine loss (FIGS. 10F and 10G). […] The symbol “*” indicates a p-value of less than 0.05; The symbol “*” in FIG. 10E indicates a p-value of less than 0.05 (CaNwt vs CaNCA). Data are mean±SD from three independent experiments, each in triplicate. […] Neurons were transfected at 10DIV and analyzed at 14DIV. A decreased spines density spines is observed when CaCA is overexpressed (15.2±1.1) compared with wtCaN (25.9±2.1). This effect was blocked by cotransfection with AKAP79 (25.6±1.0) or by the addition of VIVIT (SEQ ID NO: 7) in the medium (22±1.7). The symbol “**” indicates a p-value of less than 0.001 (ANOVA) and less than 0.05 (post-hoc Student's test). n≧15.
as §1

NFATc4 = NFATc4 nuclear translocation (nucleus/cytoplasm ratio) induced by TgCM in wild-type cultured neurons; format: cell-based, mouse; conditions: wild-type neurons treated with TgCM for 24 h; VIVIT 2 μM
Description: Immunocytochemistry was performed as described previously in Wu et al. (2004). Briefly, after being treated under different experimental conditions, cells were fixed with 4% paraformaldehyde in PBS, pH 7.4, for 15 min and were then membrane permeabilized with 0.5% Triton X-100 in PBS for 5 min. After blocking with 3% bovine serum albumin at 37° C. for 1 h, cells were incubated with primary antibodies: anti-microtubule-associated protein 2 (MAP2) antibody (1: 200; Sigma), or anti-NFATc4 antibody (1:200; Santa Cruz Biotechnology), anti-HA antibody (1:200; Invitrogen), or anti-Flag antibody (1:200; Sigma), at 4° C. overnight. […] Nuclear NFATc4 staining was determined by overlap of NFATc4 staining with Hoechst nuclear staining. […]
Soluble plaque-associated bioactive molecules, possibly assemblies of Aβ, may be responsible for the “halo” effect of neuritic change and [Ca^2+]i alterations near plaques (Kuchibhotla et al., 2008; Meyer-Luehmann et al., 2008; Koffie et al., 2009). […] (NFATc4 and MAP2 images used for quantification of nucleus/cytoplasm ratio of NFATc4 are not shown.) To better characterize the specific role of Aβ oligomers in CaN-mediated NFATc4 activation, nondenaturing size exclusion chromatography (SEC) was used to isolate the various Aβ species from TgCM. […]

Tg2576 neurons = assay: APP overexpression-induced morphological abnormalities in Tg cultures at 21 DIV; format: cell-based, mouse
calcineurin = conditions: Macian 2005; cited from earlier work
wild-type neurons = assay: Baseline maturation of wild-type neurons; format: cell-based, mouse; conditions: VIVIT 2 μM or DMSO
Excerpt: The findings presented herein indicate that nuclear accumulation of NFATc4 occurs in neurons from Tg cultures and in human AD postmortem brain and that Aβ-containing CM from Tg culture is capable of inducing CaN-mediated NFATc4 nuclear localization in wild-type neurons. […] Thus, inhibition of CaN-NFAT interaction and subsequent NFAT nuclear accumulation by VIVIT (SEQ ID NO: 7) blocks TgCM or APP overexpression-induced morphological abnormalities in culture.

NFAT [3] = conditions: in vitro; Macian 2005; cited from earlier work
[4] = tested on: wild-type cultured neurons growing in TgCM; assay: TgCM-induced morphological abnormalities in wild-type cultured neurons; format: cell-based, mouse
[5] = Tg cultures at 21 DIV, compared with wild type
[6] = wild-type neurons growing in TgCM, VIVIT 2 μM

| Substance | spine density (C57BL/6J mice) | NFAT-luciferase activity (NFAT [1]) | spine density [2] | GFP-positive neurons with local neuritic dystrophies [2] | nucleus/cytoplasm ratio of NFATc4 (NFATc4) | dendritic complexity / dendritic attenuation (Tg2576 neurons; [5]) | mean spine density / spine loss (Tg2576 neurons; [5]) | number of neurons with dendritic dystrophies (Tg2576 neurons; [5]) | overall morphology during maturation (Tg2576 neurons; Tg neurons, treatment from 3 DIV (3D6, AKAP79) or VIVIT vs DMSO) | competition for calcineurin binding (calcineurin) | number of neurons with dendritic dystrophies, dendritic processes and spine density (wild-type neurons) | NFAT dephosphorylation (NFAT [3]) | CaNCA overexpression-induced dendritic spine loss ([2]; wild-type cultured neurons overexpressing CaNCA) | spine density ([4]; primary neurons treated with TgCM for 24 h, 1 μM FK506, 2 μM VIVIT or AKAP79 transfection (FIG. 8I)) | dendritic complexity (Sholl analysis) [4, 6] | dendritic spine density [4, 6] | number of neurons with dendritic dystrophies [4, 6] |
| --- | --- | --- | --- | --- | --- | --- | --- | --- | --- | --- | --- | --- | --- | --- | --- | --- | --- |
| CaNCA: constitutively active truncated 45 kDa form of mouse CaN (amino acid residues 1-399), expressed from an AAV vector | significantly decreased | significantly increased | 15.2±1.1 | Approximately 15% | – | – | – | – | – | – | – | – | – | – | – | – | – |
| CaNwt: wild type mouse CaN expressed from an AAV vector | comparable with control vector-injected mice | – | 25.9±2.1 | 6% | – | – | – | – | – | – | – | – | – | – | – | – | – |
| VIVIT: cell-permeable VIVIT peptide that blocks the docking sites for CaN-NFAT interaction (catalog #480401; Calbiochem) (also: 11R cell-penetrating tag, position and linkage not given here) | – | – | 22±1.7 | – | abolished | prevented | prevented | prevented | dramatically improved morphology | compete with NFAT proteins for calcineurin binding | No significant changes | block NFAT dephosphorylation | virtually eliminate | restored | increased dendritic complexity | increased | reduced numbers of neurons with dendritic dystrophies |
